# Source: patent US10544143B2, “4-azaindole compounds” (BRISTOL-MYERS SQUIBB COMPANY, priority 2017, dated 2020)
# Read-outs that look alike come from different tables or passages of the source.
# Experiments:
# human TLR7 = human TLR7 (Homo sapiens (Human), UniProt Q9NYK1); assay: TLR7 inhibition reporter assay (HEK-Blue SEAP); assay type: cell-based
# human TLR8 = human TLR8 (Homo sapiens (Human), UniProt Q9NR97); assay: TLR8 inhibition reporter assay (HEK-Blue SEAP);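 note: SEAP driven by IFN-β minimal promoter carrying NF-κB and AP-1 sites, compounds dosed 0.05 nM to 50 µM for 22 h, inhibition scaled between agonist-plus-DMSO and reference-inhibitor wells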
# human TLR9 = human TLR9 (Homo sapiens (Human), UniProt Q9NR96); assay: TLR9 inhibition reporter assay (HEK-Blue SEAP);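 note: SEAP driven by an IFN-β minimal promoter with NF-κB and AP-1 sites, read after 22 h, compounds dosed 0.05 nM–50 µM, inhibition scaled between agonist plus DMSO and reference-inhibitor wells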
# [1] = HEK-Blue cells overexpressing human TLR7, SEAP reporter, gardiquimod 7.5 μM
# [2] = read-out: TLR8 IC50, HEK-Blue cells overexpressing human TLR8, SEAP reporter, R848 15.9 μM
# [3] = read-out: TLR9 IC50, HEK-Blue cells overexpressing human TLR9, SEAP reporter, ODN2006 5 nM
# [4] = HEK-Blue human TLR7 cells, gardiquimod 7.5 μM
# [5] = read-out: TLR8 IC50, HEK-Blue human TLR8 cells, R848 15.9 μM
# [6] = read-out: TLR9 IC50, HEK-Blue human TLR9 cells, ODN2006 5 nM
# [7] = HEK-Blue cells overexpressing human TLR7, gardiquimod 7.5 μM stimulation, SEAP reporter
# [8] = read-out: TLR8 IC50, HEK-Blue cells overexpressing human TLR8, R848 15.9 μM stimulation, SEAP reporter
# [9] = read-out: TLR9 IC50, HEK-Blue cells overexpressing human TLR9, ODN2006 5 nM stimulation, SEAP reporter
# Chain of human TLR9 (Q9NR96 26-1032): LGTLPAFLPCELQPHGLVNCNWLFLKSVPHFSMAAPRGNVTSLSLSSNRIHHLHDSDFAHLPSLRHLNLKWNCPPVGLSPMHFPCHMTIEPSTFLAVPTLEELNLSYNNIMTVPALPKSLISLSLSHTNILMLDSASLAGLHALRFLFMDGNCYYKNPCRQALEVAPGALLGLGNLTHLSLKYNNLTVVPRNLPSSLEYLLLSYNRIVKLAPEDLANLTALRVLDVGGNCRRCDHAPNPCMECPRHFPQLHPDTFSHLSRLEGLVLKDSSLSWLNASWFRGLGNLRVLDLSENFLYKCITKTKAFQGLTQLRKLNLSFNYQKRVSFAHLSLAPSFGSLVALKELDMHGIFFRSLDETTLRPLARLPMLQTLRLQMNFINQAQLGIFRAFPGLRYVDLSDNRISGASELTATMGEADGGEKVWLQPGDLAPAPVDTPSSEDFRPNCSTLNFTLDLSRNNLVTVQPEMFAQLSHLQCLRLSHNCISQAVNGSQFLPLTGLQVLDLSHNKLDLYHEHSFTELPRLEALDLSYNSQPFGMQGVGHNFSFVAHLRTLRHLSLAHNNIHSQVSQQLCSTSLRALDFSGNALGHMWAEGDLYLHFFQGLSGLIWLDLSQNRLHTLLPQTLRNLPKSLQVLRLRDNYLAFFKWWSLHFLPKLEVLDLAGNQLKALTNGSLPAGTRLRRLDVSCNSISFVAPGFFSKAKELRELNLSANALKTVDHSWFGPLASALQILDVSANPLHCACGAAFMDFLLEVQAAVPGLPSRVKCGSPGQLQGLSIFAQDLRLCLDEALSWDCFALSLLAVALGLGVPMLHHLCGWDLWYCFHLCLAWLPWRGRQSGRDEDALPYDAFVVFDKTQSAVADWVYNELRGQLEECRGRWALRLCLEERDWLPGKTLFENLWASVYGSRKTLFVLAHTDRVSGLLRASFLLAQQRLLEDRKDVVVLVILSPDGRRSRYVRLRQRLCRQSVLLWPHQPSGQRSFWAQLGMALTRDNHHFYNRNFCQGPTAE
# Chain of human TLR8 (Q9NR97 27-1041): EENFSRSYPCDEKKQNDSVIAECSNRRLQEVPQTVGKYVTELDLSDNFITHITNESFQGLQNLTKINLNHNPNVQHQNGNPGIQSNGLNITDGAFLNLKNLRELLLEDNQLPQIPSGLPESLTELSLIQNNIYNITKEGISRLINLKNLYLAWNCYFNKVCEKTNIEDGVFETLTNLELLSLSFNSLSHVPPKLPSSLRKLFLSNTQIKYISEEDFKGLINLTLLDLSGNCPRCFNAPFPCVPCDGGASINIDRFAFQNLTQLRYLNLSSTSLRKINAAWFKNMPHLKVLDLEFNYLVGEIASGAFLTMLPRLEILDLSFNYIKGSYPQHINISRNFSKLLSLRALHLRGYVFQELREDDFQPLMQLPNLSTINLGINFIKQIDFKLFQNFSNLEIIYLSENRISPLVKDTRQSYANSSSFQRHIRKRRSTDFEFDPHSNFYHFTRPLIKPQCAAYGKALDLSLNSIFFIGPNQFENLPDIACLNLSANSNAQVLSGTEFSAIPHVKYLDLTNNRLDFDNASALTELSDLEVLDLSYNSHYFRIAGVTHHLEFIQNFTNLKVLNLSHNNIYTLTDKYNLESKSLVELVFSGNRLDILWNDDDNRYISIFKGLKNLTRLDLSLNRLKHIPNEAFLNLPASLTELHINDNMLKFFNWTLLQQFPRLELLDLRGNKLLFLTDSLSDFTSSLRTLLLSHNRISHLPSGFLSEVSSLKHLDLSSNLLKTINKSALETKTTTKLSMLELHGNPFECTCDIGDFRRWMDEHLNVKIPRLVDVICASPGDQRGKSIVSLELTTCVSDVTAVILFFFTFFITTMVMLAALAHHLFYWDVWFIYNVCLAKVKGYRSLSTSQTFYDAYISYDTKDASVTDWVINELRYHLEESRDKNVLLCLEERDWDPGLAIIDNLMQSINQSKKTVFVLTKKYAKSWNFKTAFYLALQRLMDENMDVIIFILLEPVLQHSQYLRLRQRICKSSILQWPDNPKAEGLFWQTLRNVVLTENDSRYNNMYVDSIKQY
# Chain of human TLR7 (Q9NYK1 27-1049): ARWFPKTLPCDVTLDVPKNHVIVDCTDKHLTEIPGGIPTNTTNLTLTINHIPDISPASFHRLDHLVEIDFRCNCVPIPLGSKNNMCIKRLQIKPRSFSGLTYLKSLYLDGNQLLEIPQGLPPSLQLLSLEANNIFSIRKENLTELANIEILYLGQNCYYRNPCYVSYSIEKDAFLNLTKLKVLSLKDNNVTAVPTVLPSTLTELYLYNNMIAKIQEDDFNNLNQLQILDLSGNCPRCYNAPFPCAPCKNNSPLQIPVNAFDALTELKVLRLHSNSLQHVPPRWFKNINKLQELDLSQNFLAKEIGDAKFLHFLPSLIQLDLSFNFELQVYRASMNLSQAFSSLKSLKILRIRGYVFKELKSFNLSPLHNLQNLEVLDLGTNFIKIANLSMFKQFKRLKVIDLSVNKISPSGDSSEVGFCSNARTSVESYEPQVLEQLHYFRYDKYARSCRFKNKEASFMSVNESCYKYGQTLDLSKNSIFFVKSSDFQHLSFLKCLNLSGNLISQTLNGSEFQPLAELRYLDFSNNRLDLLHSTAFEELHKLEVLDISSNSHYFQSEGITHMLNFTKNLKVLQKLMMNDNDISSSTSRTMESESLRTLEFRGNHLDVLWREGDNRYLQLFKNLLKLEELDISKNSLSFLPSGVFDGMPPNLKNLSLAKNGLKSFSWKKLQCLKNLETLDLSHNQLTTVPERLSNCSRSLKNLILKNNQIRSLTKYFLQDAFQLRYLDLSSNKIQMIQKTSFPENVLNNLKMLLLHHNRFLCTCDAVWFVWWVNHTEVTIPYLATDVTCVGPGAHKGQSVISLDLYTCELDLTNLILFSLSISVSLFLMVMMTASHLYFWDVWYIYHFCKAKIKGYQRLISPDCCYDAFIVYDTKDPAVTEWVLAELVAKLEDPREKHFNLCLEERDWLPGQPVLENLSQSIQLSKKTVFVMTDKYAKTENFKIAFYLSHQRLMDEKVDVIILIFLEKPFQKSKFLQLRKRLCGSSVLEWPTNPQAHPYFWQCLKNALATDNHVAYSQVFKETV
IC50 (human TLR7; [1]),IC50 (human TLR8; [2]),IC50 (human TLR9; [3]),IC50 (human TLR7; [7]),IC50 (human TLR8; [8]),IC50 (human TLR9; [9]),SMILES,further results
2.1 nM,3.3 nM,343 nM,,,,CNC(=O)CNC1CC(c2ccc3[nH]c(-c4cc(OC)c5ncnn5c4)c(C(C)C)c3n2)C1 (stereo not drawn) [Example 628],
13 nM,94 nM,20300 nM,,,,COc1cc(-c2[nH]c3ccc(C4CCC(N(CC(N)=O)CC(N)=O)C4)nc3c2C(C)C)cn2ncnc12 (stereo not drawn) [Example 720],
1.9 nM,11 nM,3140 nM,,,,COc1cc(-c2[nH]c3ccc(C4CCC(NC(=O)CN(C)C)C4)nc3c2C(C)C)cn2ncnc12 (stereo not drawn) [Example 712],
2 nM,14 nM,11700 nM,,,,CCN(CC1(S(C)(=O)=O)CC1)C1CCC(c2ccc3[nH]c(-c4cn5ncnc5c(C)c4C)c(C(C)C)c3n2)CC1 (stereo not drawn) [Example 480],
4.2 nM,27 nM,7630 nM,,,,Cc1c(-c2[nH]c3ccc(N4C[C@H](C)N(C(=O)CN(C)C)[C@@H](C)C4)nc3c2C(C)C)cn2ncnc2c1C [Example 760],
0.41 nM,0.53 nM,982 nM,,,,COc1cc(-c2[nH]c3ccc(C4CCC(NC5CCOCC5)C4)nc3c2C(C)C)cn2ncnc12 (stereo not drawn) [Example 721],
7.5 nM,2.1 nM,2620 nM,,,,Cc1c(-c2[nH]c3ccc(C4CCC(NC(C)(C)C(=O)N5CCOCC5)CC4)nc3c2C(C)C)cn2ncnc2c1C (stereo not drawn) [Example 496],
11 nM,3 nM,2180 nM,,,,Cc1c(-c2[nH]c3ccc(C4CCN(CC(C)C)CC4)nc3c2C(C)C)cn(C)c(=O)c1Cl [Example 569],
8.8 nM,6.9 nM,3220 nM,,,,CNC(=O)CN1CCC(c2ccc3[nH]c(-c4cn(C)c(=O)c(Cl)c4C)c(C(C)C)c3n2)CC1 [Example 565],
10 nM,70 nM,4830 nM,,,,COc1cc(-c2[nH]c3cc(C)c(C(=O)N(C)CCN(C)C)nc3c2C(C)C)cn2ncnc12 [Example 732],
11 nM,9.2 nM,315 nM,,,,CC(C)c1c(-c2cn(C)c3ncccc23)[nH]c2ccc(CCC3CN(CC4(C)COC4)C3)nc12 [Example 691],

# The next lines start with the molecule.
SMILES,IC50 (human TLR7; [1]),IC50 (human TLR8; [2]),IC50 (human TLR9; [3]),IC50 (human TLR7; [7]),IC50 (human TLR8; [8]),IC50 (human TLR9; [9]),further results
Cc1c(-c2[nH]c3ccc(N4CC5(C4)CN(C(C)C)C5)nc3c2C(C)C)cn2ncnc2c1C [Example 1003],,,,,,,IC50 (human TLR7; [4]): 1.8 nM; IC50 (human TLR8; [5]): 3.7 nM; IC50 (human TLR9; [6]): 3160 nM
Cc1c(-c2[nH]c3ccc(C4CCC(NCC5(S(C)(=O)=O)CC5)CC4)nc3c2C(C)C)cn2ncnc2c1C (stereo not drawn) [Example 419],4.1 nM,2.5 nM,1740 nM,,,,
Cc1c(-c2[nH]c3ccc(C4CCC(N5CCC5)CC4)nc3c2C(C)C)cn2ncnc2c1C (stereo not drawn) [Example 1051],,,,,,,IC50 (human TLR7; [4]): 0.41 nM; IC50 (human TLR8; [5]): 1.5 nM; IC50 (human TLR9; [6]): 1910 nM
CNC(=O)CN(C)C1CCC(c2ccc3[nH]c(-c4cn5ncnc5c(C)c4C)c(C(C)C)c3n2)CC1 (stereo not drawn) [Example 420],1.2 nM,2.8 nM,3530 nM,,,,
Cc1c(-c2[nH]c3ccc(N4C[C@@H](C)N(C(=O)CCN5CCOCC5(C)C)C[C@@H]4C)nc3c2C(C)C)cn2ncnc2c1C [Example 963],,,,,,,IC50 (human TLR7; [4]): 0.84 nM; IC50 (human TLR8; [5]): 1.9 nM; IC50 (human TLR9; [6]): 35300 nM
CC(C)c1c(-c2cn(CCS(C)(=O)=O)c3ncccc23)[nH]c2ccc(C3CCC(O)CC3)nc12 (stereo not drawn) [Example 260],,,,527 nM,173 nM,10900 nM,
"Cc1c(-c2[nH]c3ccc(N4CCN(CC(C)(C)O)CC4)nc3c2C(C)C)cn2ncnc2c1C [Example 105, 1-(4-(2-(7,8-dimethyl-[1,2,4]triazolo[1,5-a]pyridin-6-yl)-3-isopropyl-1H-pyrrolo[3,2-b]pyridin-5-yl)piperazin-1-yl)-2-methylpropan-2-ol]",,,,3.9 nM,0.15 nM,9240 nM,
CC(C)c1c(-c2cn(CCS(C)(=O)=O)c3ncccc23)[nH]c2ccc(C3CCC(NCC(=O)N(C)C)CC3)nc12 (stereo not drawn) [Example 257],,,,35 nM,25 nM,175 nM,
CCCN(C)CC(=O)N1C[C@H](C)N(c2ccc3[nH]c(-c4cn5ncnc5c(C)c4C)c(C(C)C)c3n2)C[C@H]1C [Example 894],,,,,,,IC50 (human TLR7; [4]): 0.37 nM; IC50 (human TLR8; [5]): 0.89 nM; IC50 (human TLR9; [6]): 10800 nM
[2H]C([2H])([2H])NCC(=O)N1CCN(c2ccc3[nH]c(-c4cn5ncnc5c(C)c4C)c(C(C)C)c3n2)CC1 [Example 952],,,,,,,"IC50 (human TLR7; [4]): 1.8 nM; IC50 (human TLR8; TLR8 IC50, HEK-Blue human TLR8 cells, R848 15.9 μM): 0.7 nM; IC50 (human TLR9; TLR9 IC50, HEK-Blue human TLR9 cells, ODN2006 5 nM): 7860 nM"
CCn1cc(-c2[nH]c3ccc(C4CCC(NC5CCOCC5)CC4)nc3c2C(C)C)c2cccnc21 (stereo not drawn) [Example 289],,,,3.5 nM,11 nM,967 nM,
Cc1c(-c2[nH]c3ccc(N4CCN(C(=O)CC(C)(C)N5CC6(COC6)C5)CC4)nc3c2C(C)C)cn2ncnc2c1C [Example 945],,,,,,,IC50 (human TLR7; [4]): 4.8 nM; IC50 (human TLR8; [5]): 0.94 nM; IC50 (human TLR9; [6]): 7850 nM
Cc1c(-c2[nH]c3ccc(N4C[C@@H](C)N(C(=O)CCN(C)C)[C@@H](C)C4)nc3c2C(C)C)cn2ncnc2c1C [Example 860],,,,,,,IC50 (human TLR7; [4]): 0.3 nM; IC50 (human TLR8; [5]): 0.62 nM; IC50 (human TLR9; [6]): 5060 nM
Cc1c(-c2[nH]c3ccc(N4CCN(C(=O)CN5CC6(COC6)C5)[C@H](C)C4)nc3c2C(C)C)cn2ncnc2c1C [Example 940],,,,,,,IC50 (human TLR7; [4]): 1.7 nM; IC50 (human TLR8; [5]): 0.66 nM; IC50 (human TLR9; [6]): 8340 nM
Cc1c(-c2[nH]c3ccc(C4CCC(NCCC(F)(F)F)CC4)nc3c2C(C)C)cn2ncnc2c1C (stereo not drawn) [Example 376],,,,0.71 nM,1.2 nM,1030 nM,
Cc1c(-c2[nH]c3ccc(N4CC5(C4)CN(C4CCOCC4)C5)nc3c2C(C)C)cn2ncnc2c1C [Example 1012],,,,,,,IC50 (human TLR7; [4]): 0.59 nM; IC50 (human TLR8; [5]): 1.4 nM; IC50 (human TLR9; [6]): 1690 nM
COc1cc(-c2[nH]c3ccc(N4CCN(Cc5cn(C)nn5)CC4)nc3c2C(C)C)cn2ncnc12 [Example 129],,,,6.7 nM,1.3 nM,22800 nM,
COc1cc(-c2[nH]c3ccc(C4CCC(NC5COC5)CC4)nc3c2C(C)C)cn2ncnc12 (stereo not drawn) [Example 178],,,,0.48 nM,1.8 nM,895 nM,
Cc1c(-c2[nH]c3ccc(C4CCC(NCc5c[nH]nn5)CC4)nc3c2C(C)C)cn2ncnc2c1C (stereo not drawn) [Example 412],2.2 nM,2.1 nM,727 nM,,,,
Cc1c(-c2[nH]c3ccc(C4CC5(C4)CN(CC4(C)COC4)C5)nc3c2C(C)C)cn2ncnc2c1C [Example 1025],,,,,,,IC50 (human TLR7; [4]): 3 nM; IC50 (human TLR8; [5]): 0.86 nM; IC50 (human TLR9; [6]): 5860 nM
COc1cc(-c2[nH]c3ccc(N4CCN(CCCS(C)(=O)=O)CC4)nc3c2C(C)C)cn2ncnc12 [Example 132],,,,2.8 nM,0.51 nM,7390 nM,
CC(C)c1c(-c2cc(CO)c3ncnn3c2)[nH]c2ccc(C3CCC(NC4COC4)CC3)nc12 (stereo not drawn) [Example 215],,,,[…],7.6 nM,2250 nM,
Cc1c(-c2[nH]c3ccc(N4CCN(CCCS(C)(=O)=O)CC4)nc3c2C(C)C)cn2ncnc2c1C [Example 147],,,,5 nM,0.26 nM,18700 nM,
COC(=O)N1CCN(C2CN(c3ccc4[nH]c(-c5cn6ncnc6c(C)c5C)c(C(C)C)c4n3)C2)CC1 [Example 42],,,,178 nM,57 nM,> 50000 nM,
Cc1c(-c2[nH]c3ccc(N4CC(N(C)C5CCOCC5)C4)nc3c2C(C)C)cn2ncnc2c1C [Example 24],,,,40 nM,2.7 nM,14000 nM,
Cc1c(-c2[nH]c3ccc(C4CCC(N5CCC6(COC6)C5)CC4)nc3c2C(C)C)cn2ncnc2c1C (stereo not drawn) [Example 1060],,,,,,,IC50 (human TLR7; [4]): 0.5 nM; IC50 (human TLR8; [5]): 0.5 nM; IC50 (human TLR9; [6]): 2600 nM
